This is an account of results in patent publication US20240393292A1, “ALLERGY ANTIGEN AND EPITOPE THEREOF” (HOYU CO., LTD., priority 2019, published 2024).

For this experiment, the system named is IgE antibodies from patients. Kind of experiment: Wheat epitope mapping (2): overlapping 10-amino-acid peptide fragments shifted by one amino acid.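 Note: key of grades: preferably = shorter partial sequence still acting as epitope; more preferably = sequence improving IgE binding; key = particularly important sequence.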 It is filed as binding, human. The method, boiled down: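 Residual binding was banded as <30% none, 30–<50% poor, 50–<70% somewhat poor and ≥70% retained, relative to the parent overlapping sequence set to 100%. Values were chemiluminescent IgE signals from patient sera after subtracting secondary-antibody-only controls. The peptides were spot-synthesised 10-mers shifted by one amino acid.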

Where [1] appears, read: serum of patient G5 (adult, general immediate type allergy to wheat).
[2] abbreviates: serum of patient G6 (adult, general immediate type allergy to wheat).
Where [3] appears, read: serum of patient G9 (adult, general immediate type allergy to wheat).

Regarding “1846 (TVRTLQR; REGION 1..7: note = epitope) [compound 1846]”, where the note is “serum of patient P12 (WDEIA)”, the “epitope sequence binding to IgE antibody, rank (Key/Preferably/More preferably)” value is “Key”.

“1848 (YTVRTLQRT; REGION 1..9: note = epitope) [compound 1848]”: the “epitope sequence binding to IgE antibody, rank (Key/Preferably/More preferably)” value (serum of patient P16 (WDEIA)) is given as “More preferably”.

On to “1849 (TVRTLQR; REGION 1..7: note = epitope) [compound 1849]”, for which the “epitope sequence binding to IgE antibody, rank (Key/Preferably/More preferably)” value (serum of patient P16 (WDEIA)) is given as “Preferably”.

“1850 (VRTLQ; REGION 1..5: note = epitope) [compound 1850]”: the “epitope sequence binding to IgE antibody, rank (Key/Preferably/More preferably)” value (serum of patient P16 (WDEIA)) is listed as “Key”.

Regarding “1852 (YTVRTLQRT; REGION 1..9: note = epitope) [compound 1852]”, the “epitope sequence binding to IgE antibody, rank (Key/Preferably/More preferably)” value (serum of patient P17 (WDEIA)) is reported as “More preferably”.

Turning to “1853 (TVRTLQR; REGION 1..7: note = epitope) [compound 1853]”, the “epitope sequence binding to IgE antibody, rank (Key/Preferably/More preferably)” value (serum of patient P17 (WDEIA)) was “Preferably”.

As to “1854 (RTLQR; REGION 1..5: note = epitope) [compound 1854]”, the “epitope sequence binding to IgE antibody, rank (Key/Preferably/More preferably)” value (serum of patient P17 (WDEIA)) is recorded as “Key”.

“1856 (YTVRTLQRT; REGION 1..9: note = epitope) [compound 1856]”: where the note is “serum of patient P18 (WDEIA)”, the “epitope sequence binding to IgE antibody, rank (Key/Preferably/More preferably)” value is on record as “More preferably”.

As for “1857 (TVRTLQR; REGION 1..7: note = epitope) [compound 1857]”, the “epitope sequence binding to IgE antibody, rank (Key/Preferably/More preferably)” value (serum of patient P18 (WDEIA)) is recorded as “Preferably”.

In the case of “1858 (RTLQ; REGION 1..4: note = epitope) [compound 1858]”, the “epitope sequence binding to IgE antibody, rank (Key/Preferably/More preferably)” value (serum of patient P18 (WDEIA)) was “Key”.

“1859 (YTVRTLQR; REGION 1..8: note = epitope) [compound 1859]”: the “epitope sequence binding to IgE antibody, rank (Key/Preferably/More preferably)” value (serum of patient P19 (WDEIA)) is “Preferably”.

Regarding “1860 (TVRTLQ; REGION 1..6: note = epitope) [compound 1860]”, the “epitope sequence binding to IgE antibody, rank (Key/Preferably/More preferably)” value (serum of patient P19 (WDEIA)) is recorded as “Key”.

For “1861 (TVRTLQRT; REGION 1..8: note = epitope) [compound 1861]”, the “epitope sequence binding to IgE antibody, rank (Key/Preferably/More preferably)” value (serum of patient P24 (WDEIA)) is “Preferably”.

On to “1862 (VRTLQ; REGION 1..5: note = epitope) [compound 1862]”, for which the “epitope sequence binding to IgE antibody, rank (Key/Preferably/More preferably)” value (serum of patient P24 (WDEIA)) is “Key”.

“1863 (VIAEYTVRTL; REGION 1..10: note = epitope) [compound 1863]”: the “epitope sequence binding to IgE antibody, rank (Key/Preferably/More preferably)” value (serum of patient P25 (WDEIA)) is recorded as “Key”.

Consider “1864 (TVRTLQR; REGION 1..7: note = epitope) [compound 1864]”, for which, under “serum of patient P25 (WDEIA)”, the “epitope sequence binding to IgE antibody, rank (Key/Preferably/More preferably)” value is “Key”.

With “1865 (TVRTLQR; REGION 1..7: note = epitope) [compound 1865]”, the “epitope sequence binding to IgE antibody, rank (Key/Preferably/More preferably)” value (serum of patient P26 (WDEIA)) is “Key”.

In the case of “1866 (TVRTLQR; REGION 1..7: note = epitope) [compound 1866]”, the “epitope sequence binding to IgE antibody, rank (Key/Preferably/More preferably)” value (serum of patient P27 (WDEIA)) is “Key”.

With “1867 (TVRTLQR; REGION 1..7: note = epitope) [compound 1867]”, the “epitope sequence binding to IgE antibody, rank (Key/Preferably/More preferably)” value (serum of patient P28 (WDEIA)) is reported as “Preferably”.

“1868 (TVRTLQ; REGION 1..6: note = epitope) [compound 1868]”: the “epitope sequence binding to IgE antibody, rank (Key/Preferably/More preferably)” value (serum of patient P28 (WDEIA)) is recorded as “Key”.

Take “1869 (YTVRTLQRT; REGION 1..9: note = epitope) [compound 1869]”: the “epitope sequence binding to IgE antibody, rank (Key/Preferably/More preferably)” value (serum of patient P29 (WDEIA)) is “More preferably”.

“1870 (YTVRTLQR; REGION 1..8: note = epitope) [compound 1870]”: the “epitope sequence binding to IgE antibody, rank (Key/Preferably/More preferably)” value (serum of patient P29 (WDEIA)) was “Preferably”.

For “1871 (VRTLQR; REGION 1..6: note = epitope) [compound 1871]”, the “epitope sequence binding to IgE antibody, rank (Key/Preferably/More preferably)” value (serum of patient P29 (WDEIA)) is “Key”.

Consider “1872 (YTVRTLQRT; REGION 1..9: note = epitope) [compound 1872]”, for which the “epitope sequence binding to IgE antibody, rank (Key/Preferably/More preferably)” value (serum of patient P30 (WDEIA)) was “Preferably”.

Take “1873 (TVRTLQR; REGION 1..7: note = epitope) [compound 1873]”: the “epitope sequence binding to IgE antibody, rank (Key/Preferably/More preferably)” value (serum of patient P30 (WDEIA)) is “Key”.

On to “1875 (TVRTLQRTV; REGION 1..9: note = epitope) [compound 1875]”, for which the “epitope sequence binding to IgE antibody, rank (Key/Preferably/More preferably)” value (serum of patient P31 (WDEIA)) was “More preferably”.

With “1876 (VRTLQRT; REGION 1..7: note = epitope) [compound 1876]”, for the setting “serum of patient P31 (WDEIA)”, the “epitope sequence binding to IgE antibody, rank (Key/Preferably/More preferably)” value is “Preferably”.

“1877 (TLQR; REGION 1..4: note = epitope) [compound 1877]”: the “epitope sequence binding to IgE antibody, rank (Key/Preferably/More preferably)” value (serum of patient P31 (WDEIA)) is on record as “Key”.

Take “1878 (TVRTLQRT; REGION 1..8: note = epitope) [compound 1878]”: for the setting “serum of patient P32 (WDEIA)”, the “epitope sequence binding to IgE antibody, rank (Key/Preferably/More preferably)” value is reported as “Preferably”.

Regarding “1879 (TVRTLQ; REGION 1..6: note = epitope) [compound 1879]”, where the note is “serum of patient P32 (WDEIA)”, the “epitope sequence binding to IgE antibody, rank (Key/Preferably/More preferably)” value is reported as “Key”.

For “1880 (TVRTLQRT; REGION 1..8: note = epitope) [compound 1880]”, the “epitope sequence binding to IgE antibody, rank (Key/Preferably/More preferably)” value (serum of patient P33 (WDEIA)) is listed as “Preferably”.

Consider “1881 (TVRTLQR; REGION 1..7: note = epitope) [compound 1881]”, for which the “epitope sequence binding to IgE antibody, rank (Key/Preferably/More preferably)” value (serum of patient P33 (WDEIA)) was “Key”.

Consider “1882 (TVRTLQRT; REGION 1..8: note = epitope) [compound 1882]”, for which, for the setting “serum of patient P34 (WDEIA)”, the “epitope sequence binding to IgE antibody, rank (Key/Preferably/More preferably)” value is on record as “Preferably”.

As to “1883 (VRTLQ; REGION 1..5: note = epitope) [compound 1883]”, the “epitope sequence binding to IgE antibody, rank (Key/Preferably/More preferably)” value (serum of patient P34 (WDEIA)) is reported as “Key”.

On to “1884 (TVRTLQRT; REGION 1..8: note = epitope) [compound 1884]”, for which the “epitope sequence binding to IgE antibody, rank (Key/Preferably/More preferably)” value (serum of patient P35 (WDEIA)) is reported as “Preferably”.

In the case of “1885 (RTLQ; REGION 1..4: note = epitope) [compound 1885]”, under “serum of patient P35 (WDEIA)”, the “epitope sequence binding to IgE antibody, rank (Key/Preferably/More preferably)” value is recorded as “Key”.

In the case of “1886 (TVRTLQRT; REGION 1..8: note = epitope) [compound 1886]”, under “serum of patient P36 (WDEIA)”, the “epitope sequence binding to IgE antibody, rank (Key/Preferably/More preferably)” value was “Key”.

Regarding “1887 (YTVRTLQRTV; REGION 1..10: note = epitope) [compound 1887]”, under setting [1], the “epitope sequence binding to IgE antibody, rank (Key/Preferably/More preferably)” value was “Preferably”.

For “1888 (TVRTLQRT; REGION 1..8: note = epitope) [compound 1888]”, the “epitope sequence binding to IgE antibody, rank (Key/Preferably/More preferably)” value under setting [1] is “Key”.

For the substance “1889 (TVRTLQR; REGION 1..7: note = epitope) [compound 1889]”, under setting [2], the “epitope sequence binding to IgE antibody, rank (Key/Preferably/More preferably)” value is on record as “Preferably”.

On to “1890 (RTLQ; REGION 1..4: note = epitope) [compound 1890]”, for which the “epitope sequence binding to IgE antibody, rank (Key/Preferably/More preferably)” value under setting [2] is “Key”.

For the substance “1891 (YTVRTL; REGION 1..6: note = epitope) [compound 1891]”, the “epitope sequence binding to IgE antibody, rank (Key/Preferably/More preferably)” value (serum of patient G7 (adult, general immediate type allergy to wheat)) is on record as “Key”.

As for “1893 (YTVRTLQRT; REGION 1..9: note = epitope) [compound 1893]”, the “epitope sequence binding to IgE antibody, rank (Key/Preferably/More preferably)” value under setting [3] was “Preferably”.

For the substance “1894 (VRTLQ; REGION 1..5: note = epitope) [compound 1894]”, the “epitope sequence binding to IgE antibody, rank (Key/Preferably/More preferably)” value under setting [3] was “Key”.

For the substance “1896 (VPLVQQQ; REGION 1..7: note = epitope) [compound 1896]”, the “epitope sequence binding to IgE antibody, rank (Key/Preferably/More preferably)” value (serum of patient P2 (WDEIA)) is on record as “Preferably”.
